This passage reports melting point results from a melting point compilation (Tetko et al.).

Peptide text beside a SMILES is read from it.

On to `O=C1CC2(CCCC2)CC(=O)O1`, for which the melting point fell in the range of 64 to 66 °C. Compound `CC(C)NC(=O)CN1CCNCC1` had a melting point of 82 to 88 °C. `CC(=O)NC1Cc2ccccc21` (centres undefined) had a melting point of 123 °C. `OCC1OC(n2cnc3c2N=CNCC3O)CC1O` (centres undefined) showed a melting point of 220 °C. Consider `O=C(NC1CCCCC1)C(C(F)(F)F)C(F)(F)F`, for which the melting point fell in the range of 190 to 192 °C. `Cc1c(C)c(N)c(C)c(C)c1N` showed a melting point of 150 to 153 °C. `C#CC(O)c1ccccc1` (centres undefined): the melting point came to 28 °C. With `Cc1ccccc1N1C(=O)c2cc(S(N)(=O)=O)c(Cl)cc2NC1C` (centres undefined), the melting point came out at 252 °C. In the case of `CCCCCCCCCCCCS(=O)(=O)Cl` it was 40.5 °C; in that of `NC(=O)NCCC[C@H](N)C(=O)O`, 236 °C; in that of `Ic1ccccc1Cn1cncn1`, 67 to 69 °C. `C=CCN(CC=C)C(=O)C(Cl)Cl` registered a melting point of 5.5 °C. In the case of `CC(C)(C)OC(=O)N1CCN(C(=O)OCC2c3ccccc3-c3ccccc32)C(C(=O)O)C1` (centres undefined) it was 163 to 166 °C. The compound `COC(=O)C1CC2(C(=O)OC)C=CC1C2` (centres undefined) came in with a melting point of 38 °C. In the case of `C/C(CCc1oc2c(Br)cc(Br)cc2c1-c1ccc(C)o1)=N/O`, the melting point fell in the range of 157 to 158 °C. The compound `Cc1c(/N=C/c2cc(Br)cc(Br)c2O)c(=O)n(-c2ccccc2)n1C` had a melting point of 228 °C. For the compound `O=[N+]([O-])c1cc([N+](=O)[O-])c(C(Cl)=Cc2ccccc2)cc1/C=C\c1ccccc1`, the melting point came out at 191 °C. Regarding `CCOC(=O)CCC(=O)O`, the melting point was determined as 8 °C.

`CC1=CC(=C(C#N)C#N)C=C(C=Cc2ccc(N(C)C)cc2)O1` showed a melting point of 212 °C. On to `CC1C=CCC1` (centres undefined), for which the melting point is -127 °C.

The compound `COc1cc2c(cc1OC)C(c1ccc(C)cc1)N(C(C)=O)CC2` (centres undefined) came in with a melting point of 183 to 185 °C. `Cc1nc(-c2cccc(C(=O)O)c2)cs1` had a melting point of 200 to 201 °C.

Take `OCc1ccc(N2CCOCC2)cc1`: the melting point was 96 to 98 °C.

`CC(C)(C)c1ccc(S)cc1` yielded a melting point of -11 °C. On to `CC1=CC[C@@H]2[C@@H]3CCC4CC(=O)CC[C@]4(C)[C@H]3CC[C@]12C` (some centres undefined), for which the melting point was 140 to 141 °C. On to `O=[N+]([O-])c1ccc(N=C=Nc2ccc([N+](=O)[O-])cc2)cc1`, for which the melting point lay within 166 to 168 °C. `Cc1ccccc1N(C)C` yielded a melting point of -60 °C. As to `COc1cccc(C(=O)N(NC(=O)c2ccccc2)C(C)(C)C)c1`, the melting point was found to be 188 °C.

In turn, `Cc1ccc2[nH]ccc2c1` registered a melting point of 60 °C.

As for `CN(N)c1ccc(C(F)(F)F)cn1`, the melting point lay in the range of 52 to 55 °C. In turn, `C=CCC1(O)CCC2C3CCC4=CC(=O)CCC4=C3C=CC21C` (centres undefined) showed a melting point of 120 °C. Compound `CC(C)CC(=O)C=Cc1ccccc1` had a melting point of 43 °C. As for `CCC1(C)CC(=O)NC(=O)C1`, the melting point was found to be 126 °C. For `CC1CCC(C)(COC(=O)c2ccc(N)cc2)C1(C)C` (centres undefined), the melting point was 74 °C. In turn, `N#Cc1cc(F)c(Cl)nc1Cl` showed a melting point of 91 °C. On to `COc1ccccc1/C=C(\C#N)c1nc2ccccc2s1`, for which the melting point stood at 158 °C. In the case of `C#CC1(O)CCC2C3CCc4cc(O)ccc4C3CCC21C` (centres undefined) it was 141 °C.

`CCC(C)(S(=O)(=O)CC)S(=O)(=O)CC`: the melting point is 76 °C. The compound `O=C1OC(c2ccccc2)=NC1=Cc1ccco1` gave a melting point of 158 to 159 °C. Turning to `COc1ccc(C(O)c2ccccc2)cc1` (centres undefined), the melting point stood at 67 °C. Compound `Cc1cc(N(C)C)nc(Cl)n1` gave a melting point of 87 °C. With `CCOC(=O)c1nn(-c2ccccc2)c(=N)c(-c2nc3ccccc3s2)c1C`, the melting point is 148 °C.

`Cc1c(C(=O)Cl)cnn1-c1ccc(Cl)cc1`: the melting point was determined as 115 °C.

Turning to `CC(=O)/N=c1\sc(C(C)=O)nn1-c1ccccc1[N+](=O)[O-]`, the melting point was 184 °C. As to `O=[N+]([O-])c1cccnc1Cl`, the melting point came to 101 °C. As for `CN1CCc2c(c3ccccc3n2Cc2ccccc2)C1`, the melting point was 95 °C. Turning to `O=[N+]([O-])c1ccc(NN=Cc2cccc3c(Br)cccc23)c([N+](=O)[O-])c1`, the melting point is 222 °C. On to `COc1ccc(C2(C)CCc3oc4ccc(C)cc4c3-c3oc(C)cc32)cc1` (centres undefined), for which the melting point is 170 °C. Compound `O=C(CBr)c1cccc2c1OCCO2` yielded a melting point of 71 to 72 °C. `CCCCCCCC/C=C\CCCCCCCC#N` registered a melting point of -1 °C. `NC(=S)c1ccc(Cl)cc1Cl` showed a melting point of 135 to 136 °C. `C[Si](C)(C)N=C=N[Si](C)(C)C` came in with a melting point of -23 °C. Regarding `C=Cc1cccc(C=C)c1`, the melting point is -52.3 °C. `CCOC(C)=C(C#N)C#N` had a melting point of 89 to 93 °C. `CC(=O)n1nc2oc3ccccc3cc-2c1=O` registered a melting point of 170 °C. The figure for `O=C(O)c1cccc(C(=O)c2ccccc2)c1` is 164 °C. Regarding `Cc1c(C(=O)O)cnn1-c1ccc(F)cc1`, the melting point was 165 to 166 °C.

The compound `NNC(=O)c1ccc(I)cc1` came in with a melting point of 173 to 175 °C. `CON1C(=O)C(=O)N(OC)C2CCCCC21` (centres undefined): the melting point lay in the range of 128 to 131 °C. In the case of `CC(=O)Oc1ccc(OC(C)=O)c(C(C)(C)C)c1`, the melting point fell in the range of 64.5 to 65.5 °C. Regarding `CC(=O)OCC(OC(C)=O)C(OC(C)=O)C(OC(C)=O)C(OC(C)=O)C(OC(C)=O)OC(C)=O` (centres undefined), the melting point was found to be 119 °C. `Cc1ccc(C(C)(C)C)cc1S` registered a melting point of -10 °C. In the case of `CC1CC(=O)C(C)(C)C1` (centres undefined) it was -40.6 °C; in that of `O=C(O)C(F)C(F)(F)F` (centres undefined), 28.2 to 29.2 °C; in that of `O=C(O)c1ccc(C(=O)O)c2c(C(=O)O)ccc(C(=O)O)c12`, 320 °C. Compound `O=c1[nH]c2scc(-c3ccccc3)c2c(=O)n1-c1ccccc1` showed a melting point of 305 to 308 °C. `Clc1ccc(-c2cc3ccccc3[nH]2)cc1`: the melting point is 206 °C.

In turn, `CC(C)CCCCCO` came in with a melting point of -106 °C. In the case of `Cn1ccc(-c2ccc(C(=O)Oc3c(F)c(F)c(F)c(F)c3F)cc2)n1` it was 122 to 124 °C.

Turning to `CC1=CC(O)c2ccccc21` (centres undefined), the melting point was 69 °C. Compound `O=C(Nc1ccccc1)C(F)(F)F` gave a melting point of 86 to 90 °C. Take `CC(C)(C)OC(=O)NC1(C(=O)O)CCc2ccccc21` (racemic): the melting point fell in the range of 156 to 159 °C.

As for `Cc1nc(CO)cs1`, the melting point was found to be 50 °C. For `C1=C[C@@H](OCc2ccccc2)[C@H](OCc2ccccc2)[C@@H](COCc2ccccc2)O1`, the melting point fell in the range of 54 to 57 °C.

`N#Cc1ccccc1CBr` yielded a melting point of 72 °C.

As for `C(=N\c1cc2c(cc1CCc1ccccc1)CC(c1ccccc1)N2)/c1ccccc1` (centres undefined), the melting point was determined as 118 °C. With `C(COCCOCC1CO1)OCCOCC1CO1` (centres undefined), the melting point is -13 °C. The compound `Cn1c(/C(C#N)=N/Nc2c(Cl)cc(Cl)cc2Cl)nc2ccccc21` came in with a melting point of 168 °C. Turning to `COc1ccccc1/C=C(\C#N)c1nc2ccccc2n1C`, the melting point amounted to 226 °C. In turn, `Brc1ccc(-c2cccs2)cc1` yielded a melting point of 95 to 96 °C.

Take `CC1(C)OC2C(CO)OC(n3cnc4c(N)ncnc43)C2O1` (centres undefined): the melting point lay within 221 to 222 °C.

`CC(C)(Oc1ccc(Cl)cc1)C(=O)NC(=O)NCN1CCOCC1` gave a melting point of 100 °C. In turn, `FC(F)(F)c1cc(-c2cccs2)nc2cc(-c3cccs3)nn12` came in with a melting point of 158 °C. `COC(=O)c1c(C)n[nH]c1-c1cc(C)on1` yielded a melting point of 168 to 170 °C. As for `Nc1cc(-c2ccccc2)nn1-c1ccccc1`, the melting point is 131 °C. Regarding `CC(=O)OCC(=O)C1(O)CCC2C3CC(C)C4=CC(=O)C=CC4(C)C3C(O)CC21C` (centres undefined), the melting point amounted to 206 °C.

Turning to `Cc1ccc2cc(C)ccc2c1`, the melting point is 112 °C.

In the case of `O=C(O)C=C(F)C(F)(F)C(F)(F)C(F)(F)C(F)(F)C(F)(F)C(F)(F)C(F)(F)F`, the melting point came to 105 °C. In the case of `CC1CCC(C(C)C)C(OC(=O)C(=O)C=Cc2ccccc2)C1` (centres undefined) it was 45.5 °C; in that of `CCOC(=O)C=CC(=O)O`, 70 °C. Consider `COc1ccc(CCCO)cc1`, for which the melting point is 26 °C. In turn, `O=C(O)C1CC=CCC1` (centres undefined) registered a melting point of 17 °C. In the case of `O=C(O)C=Cc1ccc(Sc2ccccn2)c([N+](=O)[O-])c1` it was 177 to 178 °C. Consider `CCOC(=O)c1cc(-c2cccs2)n[nH]1`, for which the melting point was 137 to 139 °C. `Oc1ccc2ccccc2c1Br` showed a melting point of 84 °C.

For the compound `N#CC(=S)Nc1ccccc1`, the melting point was in the range of 75 to 80 °C. On to `CC1CC(OC(=O)C(O)c2ccccc2)CC(C)(C)C1` (centres undefined), for which the melting point turned out to be 56 °C. As to `O=C1/C(=N\Nc2ccc(Br)cc2)C(C(F)(F)F)=NN1c1ccccc1`, the melting point stood at 175 °C.

The compound `NS(=O)(=O)c1cccc(C(=O)c2ccccc2)c1` had a melting point of 144 °C. In turn, `Nc1ccccc1S(=O)(=O)c1ccccc1` yielded a melting point of 118 to 122 °C. The figure for `O=C(CBr)c1cc(-c2ccccc2)no1` is 109 to 112 °C.

Compound `NC(=O)Cc1ccc(F)cc1Cl` returned a melting point of 171 to 173 °C. In turn, `CC12CCC(C(COC(=O)c3ccccc3)C1=O)C2(C)C` (centres undefined) yielded a melting point of 96 °C. The compound `N#Cc1cc2c(=O)oc3ccccc3c2nc1N` gave a melting point of 289 °C.

In turn, `C#CCCCCCCCCCCCCC` had a melting point of 10 °C. The figure for `Cc1cc(N=Nc2ccc(N)cc2)c(C(C)C)cc1N=Nc1ccc(N)cc1` is 177 °C. `NCC(=O)NCC(=O)NCC(=O)NCC(=O)O` (H-GGGG-OH): the melting point came to 300 °C. Regarding `CCOC(=O)c1c(-c2ccc(Cl)cc2)csc1N`, the melting point fell in the range of 111 to 112 °C.

As to `Cc1cc2c(o1)-c1c(oc3ccc(Br)cc13)CCC2(C)c1ccccc1` (centres undefined), the melting point turned out to be 127 °C.

In general, melting point refers to the temperature, or range, at which the solid turns liquid.
